Laboratory results reported in patent US8697031B2, “Dual function polymer micelles” (Case Western Reserve University, priority 2004, dated 2014).
Where no end group is shown, it is not given here.

Tested on: SLK tumor endothelial cells
Test: Flow cytometry analysis of micelle uptake
Type: cell-based
Settings: SLK cells pre-incubated with free blocking peptide at 9 mM, then co-incubated with micelles
Experimental: SLK cells were seeded at 125,000 cells/well in 6-well plates in 2 mL DMEM with 10% FBS. After 24 h, 1 mg of micelles (from 3.3 mg/ml micelle suspension) for each micelle formulation with different cRGD density (0, 5, 16, 76% cRGD) was added into each well and incubated at 37° C. for 2 h. Then, cells were washed, trypsinized and neutralized. After centrifugation at 1200 rpm for 5 min, cells were re-suspended in 1 mL PBS, followed by filtration and analysis using flow cytometry. […] In the control experiment, SLK cells were first incubated with a free blocking peptide, Ala-Ala-Arg-Gly-Asp-Tyr (AARGDY) (SEQ ID NO: 757), and then co-incubated with 76% cRGD-functionalized micelles.

AARGDY
inhibition of uptake of 76% cRGD-functionalized micelles: ~100%
